Laboratory results as given in patent US8476246B2, “Combination of a chemotherapeutic agent and an inhibitor of the TGF-beta system” (Antisense Pharma GmbH, priority 2009, dated 2013).
“Also recorded” adds a separate entry of the source. Where two headings read alike, the source gives them in different places.

Tests used:
[1] = tested on: TGF-beta 2; experiment: TGF-beta 2 secretion of Hup-T3 cells (TGF-beta 2-ELISA of cell supernatants); format: cell-based, human
Procedure: After 7 days of total treatment, cell supernatants were removed and the TGF-beta 2 concentration was analyzed (see Example 4, and FIG. 4).
The effect of gemcitabine on TGF-beta 2 expression and secretion, respectively, was investigated on Hup-T3 cells. Gemcitabine was administered to the Hup-T3 cells in following concentrations: 5 μM, 0.5 μM, 50 nM, 5 nM, 0.5 nM, 0.05 nM or 0 nM, and the cells were incubated for 5 h according to Example 1. The treatment solution was optionally replaced after 3 days.
After 7 days of treatment, cell supernatants were removed for the analysis of TGF-beta 2 concentration. The TGF-beta 2 secretion (Δ) was quantified by a standard TGF-beta 2-ELISA Kit (R&D Systems, Minneapolis, USA) according to the manufacturer's instructions.
In a further experiment the effect of the TGF-beta 2 antisense oligonucleotide on the expression and secretion, respectively, of TGF-beta 2 was investigated on Hup-T3 cells. The TGF-beta 2 antisense oligonucleotide, for example SEQ ID No. 30, was administered to the Hup-T3 cells as described in Example 1 (0 μM, 1 μM, 2.5 μM, 5 μM, 10 μM, 20 μM, 40 μM, 60 μM, or 80 μM TGF-beta 2 antisense oligonucleotide). The cells were incubated according to Example 1 and after 7 days of treatment, the cell supernatants were removed for the analysis of TGF-beta 2 concentration using the TGF-beta 2-ELISA Kit of R&D Systems.
Hup-T3 cells were incubated with different concentrations of gemcitabine (2 μM, 800 nM, 320 nM, 128 nM, 51.2 nM, 20.5 nM, 8.2 nM, and 0 nM) and TGF-beta 2 antisense oligonucleotide according to Example 1 (0 μM (▪), 5 μM (Δ), or 10 μM (•) TGF-beta 2 antisense oligonucleotide) and the cell supernatants were removed after 7 days of treatment for the analysis of TGF-beta 2 concentration using the TGF-beta 2-ELISA Kit of R&D Systems.

[2] = tested on: gemcitabine-resistant human bladder cancer cells; settings: cited from earlier work
[3] = tested on: Hup-T3 cells; experiment: Proliferation/viability of Hup-T3 cells (EZ4U method); format: cell-based, human; settings: gemcitabine 0.05 nM to 5 μM alone, 7 days, FIG. 2
Procedure: In a 96-well tissue culture plate 4000 cells/well of a human pancreatic tumor cell line Hup-T3 (German Collection of Microorganisms and Cell Cultures GmbH, Braunschweig, Germany) were seeded. The Hup-T3 cell line is not resistant to gemcitabine. One day after seeding, cells were co-treated with […] different gemcitabine concentrations, i.e., 5 μM, 2 μM, 800 nM, 320 nM, 128 nM, 51.2 nM, 20.5 nM, 8.2 nM, 3.3 nM and 0 nM gemcitabine, respectively, in combination with 0 μM (▪), 5 μM (Δ) or 10 μM (∇) TGF-beta 2 antisense oligonucleotide, for example SEQ ID No. 30, for 5 h. […]
The proliferation/viability of the Hup-T3 cells was analyzed using the EZ4U method according to the manufacturer's instructions (Biozol Diagnostca Vertrieb GmbH), and the OD was measured after an incubation time of 75 min with EZ4U solution using the plate reader “Fluostar-Optima” (BMG LABTECH GmbH). […]
The proliferation/viability of the Hup-T3 cells (▪) was analyzed using the EZ4U method according to the manufacturer's instructions (Biozol Diagnostca Vertrieb GmbH), and the OD was measured after an incubation time of 75 min with EZ4U solution using the plate reader “Fluostar-Optima” (BMG LABTECH GmbH).

[4] = tested on: A-172 cells; experiment: Cytotoxicity on A-172 cells (LDH release, CytoToxicity Detection Kit Plus); format: cell-based; settings: combination of temozolomide (200 or 800 μM) and 10 μM antisense oligonucleotide, 5 d
Procedure: A-172 cells (about 7000 cells/well) were seeded into 48-well plates, and 6 h after seeding 0 μM, 200 μM, or 800 μM temozolomide either alone (grey column) or in combination with 10 μM of a TGF-beta 2 antisense oligonuclotide (black column), for example SEQ ID No. 30, was added to the cells. After 2 d of incubation, the treatment solutions were replaced and cells were incubated for additional 3 d (total treatment time: 5 d). […] The cells of the supernatant were lysed by addition of lysis solution for example from the CytoToxicity Detection Kit Plus (Roche Diagnostics GmbH) and the LDH levels were determined for example according to the manual of the kit.

[5] = tested on: MEL-Juso cells; experiment: Proliferation/viability of MEL-Juso cells (Cyquant method); format: cell-based, human; settings: 10 μM TGF-beta 2 antisense oligonucleotide in comparison to 0 μM, FIG. 5
Procedure: In a 48-well tissue culture plate 10 000 cells/well of a human melanoma cell line MEL-Juso (CLS—Cell Lines Service, Eppelheim, Germany) were seeded. The MEL-Juso cell line is not resistant to temozolomide. Six hours after seeding, cells were co-treated with eight different temozolomid concentrations, i.e., 200 μM, 100 μM, 50 μM, 25 μM, 12.5 μM, 6.25 μM, 3.125 μM, and 0 μM temozolomide, respectively, in combination with 0 μM (▪), 5 μM (Δ) or 10 μM (∇) TGF-beta 2 antisense oligonucleotide, for example SEQ ID No. 30, for 2 days. Substances (temozolomide and TGF-beta 2 antisense oligonucleotide) were prepared in aqueous solution, stored at 4° C. and were used for 4 weeks. Thereafter the first treatment solution comprising temozolomidee and the TGF-beta 2 antisense oligonucleotide was removed and replaced by a second treatment solution containing the TGF-beta 2 antisense oligonucleotide and temozolomide in the above mentioned concentrations for further 2 days. […]
The proliferation/viability of the MEL-Juso cells was analyzed using the Cyquant method according to the manufacturer's instructions (Invitrogen), and the OD was measured after an incubation time of 60min with Cyquant solutions (detection reagent, direct nucleic acid stain, and direct nucleic acid background suppressor) using the plate reader “Fluostar-Optima” (BMG LABTECH GmbH).

Compound	effect of gemcitabine on TGF-beta 2 secretion ([1]; gemcitabine 0.05 nM to 5 μM, 7 days, FIG. 2)	effect of gemcitabine on the suppression of TGF-beta 2 secretion by TGF-beta 2 antisense oligonucleotide ([1]; gemcitabine 8.2 nM to 2 μM with 5 or 10 μM antisense oligonucleotide, FIG. 4)	IC50 ([2]; gemcitabine-resistant cells chemosensitized with sCLU-2 antisense oligonucleotide) [nM]	IC50 ([2]; gemcitabine-resistant cells, before sCLU-2 antisense oligonucleotide) [nM]	effect of gemcitabine on proliferation and viability [3]	effect on TGF-beta 2 secretion in the presence of gemcitabine ([1]; 0, 5 or 10 μM antisense oligonucleotide, gemcitabine 8.2 nM to 2 μM, FIG. 4)	effect on TGF-beta 2 secretion ([1]; antisense oligonucleotide 1 to 80 μM, no gemcitabine, 7 days, FIG. 3)	amount of released LDH [4]	reduction of the IC50 of temozolomide (cytotoxicity) [5]
Nc1ccn([C@@H]2O[C@H](CO)[C@@H](O)C2(F)F)c(=O)n1 [gemcitabine]	does not specifically influence the TGF-beta 2 secretion; also recorded: no specific influence	does not impair the suppression of TGF-beta 2 secretion; also recorded: does not affect the inhibitory effect of the antisense oligonucleotide on its target	10	100	has a cytotoxic effect; also recorded: decreases at higher gemcitabine concentrations	–	–	–	–
CGGCATGTCTATTTTGTA (listed as DNA, chemistry not given here) [TGF-beta 2 antisense oligonucleotide]	–	–	–	–	–	inhibited TGF-beta 2 secretion in a dose dependent manner	inhibited the TGF-beta 2 expression and secretion, respectively, in a dose dependent manner; also recorded: dose dependent inhibitory effect	significantly increased	about 2 ×
